# Measured values as given in patent US9914720B2, “Crystalline form of (S)-(2-(6-chloro-7-methyl-1H-benzo[D]imidazol-2-yl)-2-methylpyrrolidin-1-yl)(5-methoxy-2-(2H-1,2,3-triazol-2-yl)phenyl)methanone and its use as orexin receptor antagonists” (IDORSIA PHARMACEUTICALS LTD, priority 2013, dated 2018).
# Tests used:
# [1] = Gravimetric vapour sorption (GVS) analysis, hygroscopicity; type: physicochemical; conditions: GVS at 25° C.; for Hygroscopicity: mass change: between 40% and 80% relative humidity; for Hygroscopicity: sorption of moisture mass/mass: humidity program 40-0-95-0-95-40% RH, maximum sorption with hysteresis
# Description: Gravimetric Vapour Sorption (GVS) Analysis
# The sample was allowed to equilibrate at 40% RH before starting a pre-defined humidity program (40-0-95-0-95-40% RH, steps of 5% ΔRH and with a maximal equilibration time of 24 hours per step were applied. About 20 to 30 mg of each sample was used. The hygroscopic classification is done according to the European Pharmacopeia Technical Guide (1999, page 86), e.g., slightly hygroscopic: increase in mass is less than 2% and equal to or greater than 0.2% mass/mass; hygroscopic: increase in mass is less than 15% and equal to or greater than 2% mass/mass. The mass change between 40% relative humidity and 80% relative humidity in the first adsorption scan is considered.
# [2] = Measurement of brain and systemic concentration after oral administration; type: in vivo; conditions: 3 h after oral administration (100 mg/kg), n=3, male wistar rats
# Description: Measurement of Brain and Systemic Concentration after Oral Administration:
# Samples are collected in the same animal at the same time point (+/−5 min). Blood is sampled from the vena cava caudalis into containers with EDTA as anticoagulant and centrifuged to yield plasma. Brain is sampled after cardiac perfusion of 10 mL NaCl 0.9% and homogenized into one volume of cold phosphate buffer (pH 7.4). All samples are extracted with MeOH and analyzed by LC-MS/MS. Concentrations are determined with the help of calibration curves.
# Wistar rats = experiment: Sedative effects: EEG, EMG and behavioural indices of alertness recorded by radiotelemetry; type: in vivo; conditions: 30 mg/kg po, effects analyzed over 6 hours
# Description: Sedative Effects: EEG, EMG and Behavioural Indices of Alertness Recorded by Radiotelemetry In Vivo in Wistar Rats.
# Electroencephalography (EEG) and Electromyography (EMG) signals were measured by telemetry using TL11M2-F20-EET miniature radiotelemetric implants (Data Science Int.) with two pairs of differential leads.
# Surgical implantation was performed under general anesthesia with Ketamin/Xylazin, for cranial placement of one differential pair of EEG electrodes and one pair of EMG leads inserted in either side of the muscles of the neck. After surgery, rats recovered in a thermoregulated chamber and received analgesic treatment with subcutaneous buprenorphine twice a day for 2 d. They were then housed individually and allowed to recover for a minimum of 2 weeks. Thereafter, rats—in their home cage—were placed in a ventilated sound-attenuating box, on a 12-h light/12-h dark cycle, for acclimatization before continuous EEG/EMG recordings started. The telemetric technology that we used in this study allows accurate and stress-free acquisition of biosignals in rats placed in their familiar home cage environment, with no recording leads restricting their movements. Variables analyzed included four different stages of vigilance and sleep, spontaneous activity in the home cage and body temperature. Sleep and wake stages were evaluated using a rodent scoring software (Somnologica Science) directly processing electrical biosignals on 10 s contiguous epochs. The scoring is based on frequency estimation for EEG and amplitude discrimination for EMG and locomotor activity. Using these measurements, the software determines the probability that all components within each epoch best represent active waking (AW), quiet waking (QW), non-REM-sleep (NREM) or REM-sleep (REM). The percentage of total time spent in AW, QW, NREM- and REM-sleep was calculated per 12 h light or dark period. The latency to the onset of the first significant NREM- and REM-sleep episodes and the frequency and duration of those episodes were also calculated. […] All variables were subsequently recorded for 12 h following administration of the orexin receptor antagonist.
structure (smiles),measurement,setting,value
"COc1ccc(-n2nccn2)c(C(=O)N2CCC[C@@]2(C)c2nc3c(C)c(Cl)ccc3[nH]2)c1 [COMPOUND as free base in amorphous form, [(S)-2-(5-chloro-4-methyl-1H-benzoimidazol-2-yl)-2-methyl-pyrrolidin-1-yl]-(5-methoxy-2-[1,2,3]triazol-2-yl-phenyl)-methanone]",Hygroscopicity: mass change,[1]; first adsorption scan,"about 0.7%), Hysteresis and sorption"
same,Hygroscopicity: sorption of moisture mass/mass,[1],of up to 2.7% moisture mass/mass.
"COc1ccc(-n2nccn2)c(C(=O)N2CCC[C@@]2(C)c2nc3c(C)c(Cl)ccc3[nH]2)c1 [COMPOUND in crystalline form 1, (S)-(2-(6-chloro-7-methyl-1H-benzo[d]imidazol-2-yl)-2-methylpyrrolidin-1-yl)(5-methoxy-2-(2H-1,2,3-triazol-2-yl)phenyl)methanone]",Hygroscopicity (hygroscopic classification),"[1]; European Pharmacopeia Technical Guide classification, 40% to 80% RH, first adsorption scan",Non hygroscopic (mass change smaller
same,Hygroscopicity: mass change,[1]; first adsorption scan,then 0.1%)
"COc1ccc(-n2nccn2)c(C(=O)N2CCC[C@@]2(C)c2nc3c(C)c(Cl)ccc3[nH]2)c1 [COMPOUND in crystalline form 2, (S)-(2-(6-chloro-7-methyl-1H-benzo[d]imidazol-2-yl)-2-methylpyrrolidin-1-yl)(5-methoxy-2-(2H-1,2,3-triazol-2-yl)phenyl)methanone]",Hygroscopicity: mass change,[1]; first adsorption scan,about 0.7%)
same,Hygroscopicity: sorption of moisture mass/mass,[1],≤ 1.1% moisture mass/mass.
"COc1ccc(-n2nccn2)c(C(=O)N2CCC[C@@]2(C)c2nc3c(C)c(Cl)ccc3[nH]2)c1 [COMPOUND, (S)-(2-(6-chloro-7-methyl-1H-benzo[d]imidazol-2-yl)-2-methylpyrrolidin-1-yl)(5-methoxy-2-(2H-1,2,3-triazol-2-yl)phenyl)methanone]",concentration in brain [B],[2],1808 ng/g
same,concentration in plasma [P],[2],1280 ng/mL
same,effect on NREM sleep compared to vehicle controls,Wistar rats,+27%
same,effect on REM sleep compared to vehicle controls,Wistar rats,+53%
same,effect on active wake compared to vehicle controls,Wistar rats,−24%
same,effect on home cage activity compared to vehicle controls,Wistar rats,−31%
